Measured values: patent US20240166624A1, “PPARG INVERSE AGONISTS AND USES THEREOF” (Flare Therapeutics Inc., priority 2021, published 2024)

How the values were obtained:
[1] = molecular target: T1, PPARG/RXRA LBD heterodimer (Homo sapiens, UniProt P37231); experiment: PPARγ-MED1 blockade assay (TR-FRET, biotinylated MED1 LxxLL peptide); assay type: biochemical; conditions: WT PPARG LBD/WT RXRA LBD, 80 nM Rosiglitazone, 3 hours
T1 construct: His-TEV-Q203-Y477; Uniprot ID P37231-2; made in house; host or cells: E. coli
T1 sequence (P37231 203-477 isoform P37231-2): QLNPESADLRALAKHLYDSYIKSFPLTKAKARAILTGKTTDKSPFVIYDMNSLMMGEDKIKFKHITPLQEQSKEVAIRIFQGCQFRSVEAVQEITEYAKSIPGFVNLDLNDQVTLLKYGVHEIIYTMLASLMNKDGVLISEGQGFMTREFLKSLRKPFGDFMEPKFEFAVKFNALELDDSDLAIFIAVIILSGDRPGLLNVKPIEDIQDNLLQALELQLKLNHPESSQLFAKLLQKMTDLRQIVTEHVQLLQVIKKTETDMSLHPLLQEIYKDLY
T1 sequence (P19793 228-462 partner limits assumed): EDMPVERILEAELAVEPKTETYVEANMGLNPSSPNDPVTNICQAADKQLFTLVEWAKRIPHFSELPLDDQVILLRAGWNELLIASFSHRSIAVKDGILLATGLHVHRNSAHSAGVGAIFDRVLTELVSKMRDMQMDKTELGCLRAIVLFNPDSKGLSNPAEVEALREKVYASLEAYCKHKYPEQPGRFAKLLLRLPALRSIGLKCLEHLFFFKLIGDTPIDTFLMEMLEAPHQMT
How it was run: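 TR-FRET measuring biotinylated MED1 LxxLL peptide association with 2 nM each His-PPARG LBD (Q203-Y477) and Flag-RXRA LBD (E228-T462), E. coli expressed. Read after 3 h incubation; ratios normalized to DMSO (0%) and GW9662 minimum (100%) for IC50 and maximal MED1 repulsion.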

[2] = molecular target: T2, PPARG/RXRA LBD heterodimer (Homo sapiens, UniProt P37231); experiment: PPARγ-NCOR1 recruitment assay (TR-FRET, biotinylated NCOR1 ID2 peptide); assay type: biochemical; conditions: 80 nM Rosiglitazone, 3 hours, read-out: PPARG-NCOR recruitment assay EC50
T2 construct: His-TEV-Q203-Y477; Uniprot ID P37231-2; made in house; host or cells: E. coli
How it was run: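 2 nM each of E. coli-expressed PPARG LBD (Q203-Y477) and RXRA LBD (WT or S427F, E228-T462) with biotinylated NCOR1 ID2 peptide, incubated 3 h; TR-FRET read at Ex/Em 615/665. Ratios normalized to DMSO (0%) and T0070907 maximum (100%) for EC50 and maximal recruitment.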
T2 sequence (O75376 2251-2273 partner, one chain of several): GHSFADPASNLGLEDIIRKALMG

[3] = test system: ANGPTL4, a PPARG target gene, in HT1197 (RXRA S427F mutation) cells; experiment: Bladder cancer pharmacodynamic assay, HT1197 cell assay (qPCR of ANGPTL4); assay type: cell-based; conditions: Homo sapiens, 24 hours, 100 nM compound, relative to DMSO control
How it was run: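 5637 (PPARG amplified) and HT1197 (RXRA S427F) cells treated 24 h with PPARG inverse agonists. FABP4 and ANGPTL4 expression measured by qPCR, normalised to TBP, and reported relative to DMSO control by ΔΔCt.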

Structure (SMILES)	EC50 [1] [nM]	EC50 [2] [nM]	inhibition at 0.1 µM [3] [%]
CN(C)C(=O)c1cc(-c2c(F)cc3[nH]c(-c4cc(C#N)ccc4Cl)cc(=O)c3c2F)ccc1C(F)(F)F [Example 89, 5-(2-(2-chloro-5-cyanophenyl)-5,7-difluoro-4-oxo-1,4-dihydroquinolin-6-yl)-N,N-dimethyl-2-(trifluoromethyl)benzamide]	100 to 1000	100 to 1000	56
N#Cc1ccc(Cl)c(-c2cc(=O)c3c(F)c(-c4ccnc(CO)c4)c(F)cc3[nH]2)c1 [Example 71, 4-chloro-3-(5,7-difluoro-6-(2-(hydroxymethyl)pyridin-4-yl)-4-oxo-1,4-dihydroquinolin-2-yl)benzonitrile]	1000 to 10000	1000 to 10000	51
N#Cc1ccc(Cl)c(-c2cc(=O)c3c(F)c(C4=CCNCC4)c(F)cc3[nH]2)c1 [Example 93, 4-chloro-3-(5,7-difluoro-4-oxo-6-(1,2,3,6-tetrahydropyridin-4-yl)-14-dihydroquinolin-2-yl)benzonitrile]	1000 to 10000	1000 to 10000	48
Cn1ccc(-c2c(F)cc3[nH]c(-c4cc(C#N)ccc4Cl)cc(=O)c3c2F)n1 [Example 47, 4-chloro-3-(5,7-difluoro-6-(1-methyl-1H-pyrazol-3-yl)-4-oxo-1,4-dihydroquinolin-2-yl)benzonitrile]	100 to 1000	100 to 1000	66
N#Cc1ccc(-c2c(F)cc3[nH]c(-c4cc(C#N)ccc4Cl)cc(=O)c3c2F)cc1 [Example 35, 4-chloro-3-(6-(4-cyanophenyl)-5,7-difluoro-4-oxo-1,4-dihydroquinolin-2-yl)benzonitrile]	100 to 1000	100 to 1000	54
N#Cc1cccc(-c2c(F)cc3[nH]c(-c4cc(C#N)ccc4Cl)cc(=O)c3c2F)c1 [Example 41, 4-chloro-3-(6-(3-cyanophenyl)-5,7-difluoro-4-oxo-1,4-dihydroquinolin-2-yl)benzonitrile]	100 to 1000	10 to 100	72
N#Cc1ccc(Cl)c(-c2cc(=O)c3c(F)c(N4CCCC4=O)c(F)cc3[nH]2)c1 [Example 27, 4-chloro-3-(5,7-difluoro-4-oxo-6-(2-oxopyrrolidin-1-yl)-1,4-dihydroquinolin-2-yl)benzonitrile]	1000 to 10000	1000 to 10000	47
Cn1cc(-c2c(F)cc3[nH]c(-c4cc(C#N)ccc4Cl)cc(=O)c3c2F)cn1 [Example 44, 4-chloro-3-(5,7-difluoro-6-(1-methyl-1H-pyrazol-4-yl)-4-oxo-1,4-dihydroquinolin-2-yl)benzonitrile]	100 to 1000	100 to 1000	75
N#Cc1ccc(Cl)c(-c2cc(=O)c3c(F)c(C4COC4)c(F)cc3[nH]2)c1 [Example 45, 4-chloro-3-(5,7-difluoro-6-(oxetan-3-yl)-4-oxo-1,4-dihydroquinolin-2-yl)benzonitrile]	100 to 1000	100 to 1000	66
N#Cc1ccc(Cl)c(-c2cc(=O)c3c(F)c(-c4ccc(C(F)F)nc4)c(F)cc3[nH]2)c1 [Example 73, 4-chloro-3-(6-(6-(difluoromethyl)pyridin-3-yl)-5,7-difluoro-4-oxo-1,4-dihydroquinolin-2-yl)benzonitrile]	10 to 100	10 to 100	85
CN(C)CCn1cc(-c2c(F)cc3[nH]c(-c4cc(C#N)ccc4Cl)cc(=O)c3c2F)cn1 [Example 52, 4-chloro-3-(6-(1-(2-(dimethylamino)ethyl)-1H-pyrazol-4-yl)-5,7-difluoro-4-oxo-1,4-dihydroquinolin-2-yl)benzonitrile]	1000 to 10000	1000 to 10000	29
N#Cc1ccc(Cl)c(-c2cc(=O)c3c(F)c(-c4ccc(CC(=O)O)cc4)c(F)cc3[nH]2)c1 [Example 76, 2-(4-(2-(2-chloro-5-cyanophenyl)-5,7-difluoro-4-oxo-1,4-dihydroquinolin-6-yl)phenyl)acetic acid]	100 to 1000	100 to 1000	39
N#Cc1ccc(Cl)c(-c2cc(=O)c3c(F)c(-c4nccc(=O)[nH]4)c(F)cc3[nH]2)c1 [Example 68, 4-chloro-3-(5,7-difluoro-4-oxo-6-(6-oxo-1,6-dihydropyrimidin-2-yl)-1,4-dihydroquinolin-2-yl)benzonitrile]	1000 to 10000	1000 to 10000	28
N#Cc1ccc(Cl)c(-c2cc(=O)c3c(F)c(-c4ccc(C(F)F)cn4)c(F)cc3[nH]2)c1 [Example 61, 4-chloro-3-(6-(5-(difluoromethyl)pyridin-2-yl)-5,7-difluoro-4-oxo-1,4-dihydroquinolin-2-yl)benzonitrile]	100 to 1000	100 to 1000	70
Cc1cn(-c2c(F)cc3[nH]c(-c4cc(C#N)ccc4Cl)cc(=O)c3c2F)cn1 [Example 30, 4-chloro-3-(5,7-difluoro-6-(4-methyl-1H-imidazol-1-yl)-4-oxo-1,4-dihydroquinolin-2-yl)benzonitrile]	100 to 1000	100 to 1000	39

Further lines, with some results ahead:

EC50 [1] [nM]	EC50 [2] [nM]	Structure (SMILES)	inhibition at 0.1 µM [3] [%]
100 to 1000	100 to 1000	N#Cc1ccc(Cl)c(-c2cc(=O)c3c(F)c(-c4cc[nH]n4)c(F)cc3[nH]2)c1 [Example 97, 4-chloro-3-(5,7-difluoro-4-oxo-6-(1H-pyrazol-3-yl)-1,4-dihydroquinolin-2-yl)benzonitrile]	52
100 to 1000	100 to 1000	CO[C@H]1CCN(c2c(F)cc3[nH]c(-c4cc(C#N)ccc4Cl)cc(=O)c3c2F)C1 [Example 104, (S)-4-chloro-3-(5,7-difluoro-6-(3-methoxypyrrolidin-1-yl)-4-oxo-1,4-dihydroquinolin-2-yl)benzonitrile]	78
1000 to 10000	100 to 1000	N#Cc1ccc(Cl)c(-c2cc(=O)c3c(F)c(N4CC5(COC5)C4)c(F)cc3[nH]2)c1 [Example 98, 4-chloro-3-(5,7-difluoro-4-oxo-6-(2-oxa-6-azaspiro[3.3]heptan-6-yl)-14-dihydroquinolin-2-yl)benzonitrile]	87
100 to 1000	100 to 1000	N#Cc1ccc(Cl)c(-c2cc(=O)c3c(F)c(N4CCOCC4)c(F)cc3[nH]2)c1 [Example 107, 4-chloro-3-(5,7-difluoro-6-morpholino-4-oxo-1,4-dihydroquinolin-2-yl)benzonitrile]	80
1000 to 10000	100 to 1000	CN(C)C(=O)[C@@H]1CCN(c2c(F)cc3[nH]c(-c4cc(C#N)ccc4Cl)cc(=O)c3c2F)C1 [Example 116, (R)-1-(2-(2-chloro-5-cyanophenyl)-5,7-difluoro-4-oxo-1,4-dihydroquinolin-6-yl)-N,N-dimethylpyrrolidine-3-carboxamide]	84
1000 to 10000	1000 to 10000	CC(=O)N1CCN(c2c(F)cc3[nH]c(-c4cc(C#N)ccc4Cl)cc(=O)c3c2F)CC1 [Example 96, 3-(6-(4-acetylpiperazin-1-yl)-5,7-difluoro-4-oxo-1,4-dihydroquinolin-2-yl)-4-chlorobenzonitrile]	82
100 to 1000	100 to 1000	CN(C)C(=O)[C@@H]1CCCN(c2c(F)cc3[nH]c(-c4cc(C#N)ccc4Cl)cc(=O)c3c2F)C1 [Example 114, (R)-1-(2-(2-chloro-5-cyanophenyl)-5,7-difluoro-4-oxo-1,4-dihydroquinolin-6-yl)-N,N-dimethylpiperidine-3-carboxamide]	60
100 to 1000	100 to 1000	N#Cc1ccc(Cl)c(-c2cc(=O)c3c(F)c(-c4ccn(CC(O)CO)n4)c(F)cc3[nH]2)c1 (stereo not drawn) [Example 92, 4-chloro-3-(6-(1-(2,3-dihydroxypropyl)-1H-pyrazol-3-yl)-5,7-difluoro-4-oxo-1,4-dihydroquinolin-2-yl)benzonitrile]	24
